Key:
[1] = system: rat cardiomyocyte cell line H9c2; format: cell-based; conditions: 24 h, 20 μM
Method: A rat cardiomyocyte cell line H9c2: a DMEM culture medium (containing 10% new-born calf serum, 2 mM glutamate and 1% streptomycin/penicillin) was employed to culture, and a culture condition was an aseptic environment at 37° C. and 5% CO2. The culture medium was replaced once every 2-3 d, and when cells were cultured for 24 h and 80% were aggregated, was transferred to a 96-well plate with a cell density being 1×10^5/well; after the cells were continued to culture for 24 h, a medicament treatment was performed. A control group, a model group (containing 20 μM DOX), and a nitraria anthocyanin extract experimental group (containing 20 μM DOX and 5-500 μg/mL nitraria anthocyanin extract) were respectively provided, and after they were treated for 24 h, a cell viability was detected by an MTT method.

[2] = system: rat cardiomyocyte cell line H9c2; format: cell-based; conditions: 24 h, 20 μM; remark: listed apart in the source
Method: (§1) A rat cardiomyocyte cell line H9c2: a DMEM culture medium (containing 10% new-born calf serum, 2 mM glutamate and 1% streptomycin/penicillin) was employed to culture, and a culture condition was an aseptic environment at 37° C. and 5% CO2. The culture medium was replaced once every 2-3 d, and when cells were cultured for 24 h and 80% were aggregated, a medicament treatment was performed. A control group, a model group (containing 20 μM DOX), and a nitraria anthocyanin extract experimental group (containing 20 μM DOX and 5-500 μg/mL nitraria anthocyanin extract) were respectively provided, after they were treated for 24 h, an extracellular fluid was collected, and LDH and CK levels in the extracellular fluid were detected by employing LDH and CK array kits.

[3] = system: rat cardiomyocyte cell line H9c2; format: cell-based; conditions: 24 h, 20 μM; remark: listed apart in the source
Method: as §1, with “C02.” for “CO2.”, “provided, and” for “provided,”, “a change in cardiomyocyte apoptosis” for “an extracellular fluid”, “was” for “was collected, and LDH and CK levels in the extracellular fluid were”, “by a flow cytometer according to operating instructions of a kit by” for “by”, “an FITC-Annexin V/propidium iodide (PI) fluorescence double staining method.” for “LDH and CK array kits.”

[4] = system: bcl-2, bax, caspase-3 and caspase-9 protein expression in H9c2; assay: Western blot of bcl-2, bax, caspase-3 and caspase-9 in H9c2; format: cell-based, rat; conditions: H9c2, 20 μM DOX alone, 24 h
Method: A rat cardiomyocyte cell line H9c2: a DMEM culture medium (containing 10% new-born calf serum, 2 mM glutamate and 1% streptomycin/penicillin) was employed to culture, and a culture condition was an aseptic environment at 37° C. and 5% CO2. The culture medium was replaced once every 2-3 d, and when cells were cultured for 24 h and 80% were aggregated, a medicament treatment was performed. A control group, a model group (containing 20 μM DOX), and a nitraria anthocyanin extract experimental group (containing 20 μM DOX and 5-500 μg/mL nitraria anthocyanin extract) were respectively provided, and after they were treated for 24 h, the cells were scrapped, and were collected by centrifugation; and after being cleaned by a phosphate buffer, the cells were resuspended in a lysis buffer. After cell debrises were removed by the centrifugation, a supernatant was collected and a soluble protein concentration was determined using a BCA protein concentration assay kit. A protein solute, after being separated by 12% SDS-PAGE electrophoresis, was transferred to a PVDF membrane and thereafter was labeled by bcl-2, bax, caspase-3 and caspase-9 antibodies. An optical density of a band was determined by Quantity One software (v4.62, American Bio-Rad Company). And αβ-tubulin was taken as a protein sample loading internal reference substance.

[5] = system: rat cardiomyocyte cell line H9c2; assay: Aggregated level of cardiomyocyte ROS (DCFH-DA, flow cytometer); format: cell-based; conditions: H9c2, 20 μM DOX alone, 24 h
Method: A rat cardiomyocyte cell line H9c2: a DMEM culture medium (containing 10% new-born calf serum, 2 mM glutamate and 1% streptomycin/penicillin) was employed to culture, and a culture condition was an aseptic environment at 37° C. and 5% CO2. The culture medium was replaced once every 2-3 d, and when cells were cultured for 24 h and 80% were aggregated, a medicament treatment was performed. A control group, a model group (containing 20 μM DOX), and a nitraria anthocyanin extract experimental group (containing 20 μM DOX and 5-500 μg/mL nitraria anthocyanin extract) were respectively provided, and after they were treated for 24 h, 2′, 7′-dichlorodihydro-fluorescein diacetate (DCFH-DA, 20 μM) was added to incubate for 20 min at 37° C., and a flow cytometer was employed to detect an aggregated level of cardiomyocyte ROS. According to experimental results (as shown in FIG. 8), after the 20 μM DOX is treated for 24 h, the aggregated level of the cardiomyocyte ROS is increased to 3.5 times of a normal cell; and after the DOX and the 5-500 μg/mL nitraria anthocyanin extract are co-treated for 24 h, the aggregated level of the cardiomyocyte ROS only is 2.16-3.29 times of the normal cell.

- CK level in the extracellular fluid, times of a normal cell [2]: 2.87 times
- LDH level in the extracellular fluid, times of a normal cell [2]: 2.65 times
- number of FITC-Annexin V positive cells [3]: 1.49%
- Bax/Bcl-2 protein expression ratio versus normal cell [4]: increased to two times of a normal cell
- bax protein expression [4]: significantly increased
- bcl-2 protein expression [4]: significantly reduced
- protein expression of cut and activated caspase-3 [4]: significantly increased
- protein expression of cut and activated caspase-9 [4]: significantly increased
- aggregated level of cardiomyocyte ROS, times of a normal cell [5]: 3.5 times
SMILES: COc1cccc2c1C(=O)c1c(O)c3c(c(O)c1C2=O)C[C@@](O)(C(=O)CO)C[C@@H]3O[C@H]1C[C@H](N)[C@H](O)[C@H](C)O1 [DOX, doxorubicin]
- cell viability, of a normal cell [1]: 62.12%
